Common to all, as to format: functional
The nature of experiment [1]: Antioxidant activity assessed as reducing power at 0.5 to 2 mg/ml.
Experiment [2] relates to Radical scavenging activity. As to the kind of experiment: Antioxidant activity assessed as DPPH radical scavenging activity at 2 mg/ml. On the technique in general: Loss of DPPH colour is used to gauge radical scavenging.
Experiment [3] has as its system Radical scavenging activity. As to the kind of experiment: Antioxidant activity assessed as DPPH radical scavenging activity.
The nature of experiment [4]: Antioxidant activity assessed as superoxide anion radical scavenging activity at 2 mg/ml.
A short description of experiment [5]: Antioxidant activity assessed as hydroxyl radical scavenging activity at 2 mg/ml.
A short description of experiment [6]: Antioxidant activity assessed as hydroxyl radical scavenging activity.

≈ marks a conversion by molar mass, not a printed value. Calls of active or inactive are those of the source. The calls are words filed in the database; no cut-off is given here.

Broadly, the IC50 is the midpoint of a concentration-inhibition curve. In the case of `Cc1cc(O)cc(O[C@@H]2O[C@H](CO)[C@@H](O)[C@H](O)[C@H]2O)c1`, the result in experiment [1] was Active. Further, the Activity in experiment [2] was 69.3%; in experiment [4] it was 70.2%; in experiment [5], 77.5%; in experiment [6], “Dose-dependent effect”. Moreover, the half-maximal inhibitory concentration (IC50) in experiment [3] was 0.9 mg/mL (≈ 3.14 mM).

The values are drawn from ChEMBL document CHEMBL2424654, “Optimization of enzyme-based ultrasonic/microwave-assisted extraction and evaluation of antioxidant activity of orcinol glucoside from the rhizomes of Curculigo orchioides Gaertn” (Med Chem Res, 2013).
